Laboratory results published in patent US11203588B2, “Anti-cancer and splice modulating compounds and methods” (The Regents of the University of California, priority 2016, dated 2021).
Converted amounts (≈) assume the structure as drawn.

Columns and labels:
[1] = test system: primary CLL-B cells; assay: In vitro cytotoxicity, specific induced apoptosis (% SIA), flow cytometry; type: cell-based, human (CLL patients); details: for IC50: 48 h
Text: Peripheral blood mononuclear cells (PBMC) from CLL patients were obtained from the CLL Research Consortium (CRC) tissue bank. This protocol was approved by the institutional review board (IRB) of the University of California, San Diego. Blood samples were taken from two CLL patients after written informed consent for blood sample collection and confirmation of diagnosis for CLL diseases, The PBMCs were separated from heparinized venous blood by density gradient centrifugation using Ficoll-Hypaque media (GE Healthcare). The samples with >95% positively for leukemic B cells was confirmed by staining for CD5 and CD19 followed by assessment using flow cytometry. CLL-B cells were maintained in RPMI 1640 medium supplemented with 10% FBS, 2 mM L-glutamine, and 100 U/mL of penicillin and 100 μg/mL of streptomycin at 37° C. in an atmosphere containing 5% CO2.
The CLL-B cells (3×10^5 cells) were treated for 48 h with 10, 100, 300, and 1000 nM of 1a, 1b, 2 or 19 at 37° C. in an atmosphere containing 5% CO2. Fludarabine (F-ara-A) dosed at 10 μM was used as a control. The cells were centrifuged and labeled with CD19/CD5/DiOC6 and subjected to flow cytometry. The data was analyzed using FlowJo software. […] The dose-response curves were plotted to determine IC50 values using the GraphPad Prism version 6.0c software.

[2] = test system: intron retention in DNAJB1, ARF4, PRPF4, RIOK3, SF3A1, and U2AF2 in primary CLL-B cells; assay: RT-PCR / qRT-PCR analysis of intron retention (IR); type: cell-based; details: six genes, 4 h treatment, RNU6A and GAPDH as controls
Description: CLL-B (5×10^6 cells/well) were treated with a given dose of compound from a DMSO stock solution over 4 h. RNA isolation and cDNA preparation, PCR reaction was performed in 20 μL of reaction volume as described previously.^S3 PCR conditions give by incubation at 94° C. for 3 min; 35 cycles of 94° C. for 30 s, 55-60° C. (annealing temperature: 55° C. for GAPDH, 53.6° C. for RNU6A, 58° C. for DNAJB1, 54° C. for SF3A1, 55° C. for PRPF4, 55° C. for ARF4, and 55° C. for U2AF2) for 30 s, and 72° C. for 1 min; followed by 72° C. for 5 min. PCR products were separated on a 2% agarose gel and stained with ethidium bromide.
cDNA was prepared using identical methods as used for RT-PCR analysis. The amount of unspliced RNA for different genes was determined using Power SYBR Green PCR master mix (Applied Biosystems) by qRT-PCR using specific primers designed for detection of the intron of each gene (Table 2). The qPCR was performed using 5 pM of each primer on 20 ng of the obtained cDNA. PCR conditions were as follows: one cycle of 50° C. for 2 min (UDG Incubation), one cycle of 95° C. for 10 min (UDG Inactivation), followed by 95° C. for 15 sec; 60° C. for 30 s for 40 cycles and adding a step for dissociation using a 7900 HT Fast Real Time PCR System (Applied Biosystems). Unspliced RNA levels were calculated using 2-ΔΔCT method.^S4 GAPDH was used as a control for normalization.

[3] = test system: alternate splicing of MCL1 and BCL-X in CLL-B cells; assay: RT-PCR analysis of alternate splicing (AS); type: cell-based, human (CLL patients); details: for alternate splicing (AS) events: H2A as unspliced loading control
[4] = Solubility by capillary NMR with solvent 13C-satellites (QSCS); type: physicochemical
Text: (§1) Early studies indicate that 2 was more soluble and stable in aqueous buffers than FD-895 (1a).

[5] = Stability in aqueous buffer by NMR monitoring; type: physicochemical; details: after 744 h (1 month), D2O/DMSO-d6 (10:1) at 37° C.
Text: as §1

[6] = primary CLL-B cells from two CLL patients

CC[C@H](OC)[C@@H](C)/C=C/[C@H](O)[C@@H](C)/C=C/C=C(\C)[C@H]1O[C@H](OC)[C@H](OC)[C@@H](OC)[C@@H]1OC [Alkene 19, (2E,4E,6S,7S,8E,10S,11S)-11-methoxy-6,10-dimethyl-2-((2R,3R,4S,5R,6S)-3,4,5,6-tetramethoxytetrahydro-2H-pyran-2-yl)trideca-2,4,8-trien-7-ol]
IC50 ([1]; Homo sapiens, primary CLL-B cells, both sets of cells): > 50000 nM | splice modulation via intron retention (IR) [2]: inactive for all six genes | alternate splicing (AS) events [3]: did not induce AS

CCC(OC)C(C)C1OC1C(O)C(C)/C=C/C=C(\C)C1OC(=O)CC(O)CCC(C)(O)C(OC(C)=O)/C=C/C1C (stereo not drawn) [Compound 1a, FD-895, reference compound]
solubility (soluble up to) ([4]; D2O/DMSO-d6 (10:1) at 23° C.): 15 ± 5 mM (≈ 8.5 mg/mL) | IC50 [1, 6]: 54.1 ± 7.5 nM | MCL1 long (anti-apoptotic) and short (pro-apoptotic) isoform expression [3]: decrease in the long (anti-apoptotic) form and increased the expression of short (pro-apoptotic) form of MCL1

CC[C@H](OC)[C@@H](C)[C@H]1O[C@@H]1[C@H](O)[C@@H](C)/C=C/C=C(\C)[C@H]1O[C@H](OC)[C@H](OC)[C@@H](OC)[C@@H]1OC [Compound 2, (1R,2S,3E,5E)-1-((2R,3R)-3-((2R,3S)-3-methoxypentan-2-yl)oxiran-2-yl)-2-methyl-6-((2R,3R,4S,5R,6S)-3,4,5,6-tetramethoxytetrahydro-2H-pyran-2-yl)hepta-3,5-dien-1-ol]
solubility ([4]; 23 °C, aqueous with cosolvent or surfactant or cyclodextrin): 95 ± 5 mM (≈ 44.9 mg/mL) | decomposition (stability) [5]: no signs of decomposition | IC50 ([1]; Homo sapiens, primary CLL-B cells from two CLL patients): 153 ± 11.8 nM | loss of activity when compared to FD-895 (1a) ([1]; primary CLL-B cells, IC50 based): ~3 fold | splice modulation via intron retention (IR) [2]: complementary splice modulation in all six genes | MCL1 long (anti-apoptotic) and short (pro-apoptotic) isoform expression [3]: decrease in the long (anti-apoptotic) form and increased the expression of short (pro-apoptotic) form of MCL1 | alternate splicing (AS) events [3]: induced alternate splicing (AS) events

pladienolide B [Compound 1b, reference compound]
IC50 [1, 6]: 84.4 ± 1.2 nM | MCL1 long (anti-apoptotic) and short (pro-apoptotic) isoform expression [3]: decrease in the long (anti-apoptotic) form and increased the expression of short (pro-apoptotic) form of MCL1
